The record followed here is patent US20240083846A1, “SMAC MIMETICS FOR TREATMENT OF CANCER, PROCESS FOR PREPARATION AND PHARMACEUTICAL COMPOSITION THEREOF” (COUNCIL OF SCIENTIFIC & INDUSTRIAL RESEARCH, priority 2020, published 2024).

Like-named read-outs stand apart in the source and are kept apart here. Where a SMILES comes first, the peptide text is derived from it. [ ]: non-standard residue; d: D form. The star is where a group is joined. Pro(5R-(5-methylfur-2-yl)) = Cc1ccc([C@H]2CC[C@@H](C(=O)O)N2)o1; NHCHPh2 = c1ccc(C(N*)c2ccccc2)cc1; Chg = N[C@H](C(=O)O)C1CCCCC1; NMeA = CN[C@@H](C)C(=O)O; OBn = c1ccc(CO*)cc1

The subject of one data set is SW 620 cells. The experiment in a line: SRB cytotoxicity assay, SW 620. Format: cell-based. The settings on record: for inhibition at 10 µM: Homo sapiens, read-out: In vitro cytotoxicity at 10 μM dose, SW 620 (percent growth inhibition). Here is the method:
(§1) In vitro cytotoxic activities of different compounds were assessed by using standard SRB assay in different cells. The absorbance of the treated and untreated cells was measured on a multi-well scanning spectrophotometer (Epoch Microplate Reader, Biotek, USA) at a wavelength of 510 nm. Percent growth inhibition was calculated by using the formula […].
Background: Sulforhodamine B stains cellular protein and so reports cell mass.

A further data set has as its system HT29 cells. Briefly: SRB cytotoxicity assay, HT29. As to conditions: for inhibition at 10 µM: Homo sapiens, read-out: In vitro cytotoxicity at 10 μM dose, HT29 (percent growth inhibition). The data set is classed as cell-based. Here is the method: as §1
The next data set has as its target XIAP BIR3 protein (Homo sapiens, UniProt P98170). The experiment in a line: Fluorescence polarization competition binding assay, XIAP BIR3. Here is the method:
(§2) The SMAC mimetics 1-9 were tested for their ability to displace the fluorescent labeled peptide AVPIAQK(FAM)-OH from XIAP BIR2 or XIAP BIR3 protein. The dose dependent binding experiment were then carried out by sequentially increasing the concentration of SMAC mimetic compounds at constant concentration of fluorescent labeled peptide and XIAP BIR2 or XIAP BIR3 protein. IC5- values were determined from the plot draw by prism software using nonlinear least-squares analysis. The Ki values of the SMAC mimetics were calculated which was based upon the measured IC50 values, the Kd value between tracer AVPIAQK(FAM)-OH and XIAP BIR2 or XIAP BIR3 complex, and the concentrations of the protein and tracer in the competition assay by using the web based program which are freely accessed at http://sw16.im.med.umich.edu/software/calc_ki/.In-silico.
(§3) Binding isotherms were plotted between FP reading versus log values of protein concentration in nM. The data was analysed using GraphPad prism and Kd values were determined using Boltzmann-sigmoidal non-linear regression curve fitting.
A general note: Fluorescence polarisation rises when a labelled molecule tumbles more slowly, as on binding a larger partner.

A further data set addresses XIAP BIR2 protein (Homo sapiens, UniProt P98170). The experiment in a line: Fluorescence polarization competition binding assay, XIAP BIR2. Here is the method:
as §2, §3

The nature of data set [1]: SRB cytotoxicity assay, VERO. The data set is classed as cell-based, monkey. The settings on record: monkey. Here is the method:
as §1

In a further data set the test system is HCT 116 cells. Briefly: SRB cytotoxicity assay, HCT 116. Format: cell-based. The settings on record: Homo sapiens, read-out: In vitro cytotoxicity at 10 μM dose, HCT 116 (percent growth inhibition). Here is the method: as §1
For the next data set, the system named is SW-620 xenograft. The experiment in a line: Cisplatin resistant SW-620 xenograft model. The data set is classed as in vivo, nude Crl: CD1-Foxnlnu mice. The settings on record: FIG. 7. The source says:
All the animals were maintained in a pathogen-free facility under a day—night cycle.

Setting [2] is: displacement of AVPIAQK(FAM)-OH, fluorescence polarization, read-out: Target Binding BIR3 Ki.
Where [3] appears, read: SW-620, 10 μM, 48 hours, SRB assay.
[4] abbreviates: displacement of AVPIAQK(FAM)-OH, fluorescence polarization, read-out: Target Binding BIR2 Ki.
[5] abbreviates: HT-29, 10 μM, 48 hours, SRB assay.
Where [6] appears, read: VERO cells, 10 μM, 48 hours, SRB assay, read-out: In vitro cytotoxicity at 10 μM dose, VERO (percent growth inhibition).
Where [7] appears, read: HCT-116, 10 μM, 48 hours, SRB assay.

Sequence of XIAP BIR2 protein (P98170 124-240 limits assumed): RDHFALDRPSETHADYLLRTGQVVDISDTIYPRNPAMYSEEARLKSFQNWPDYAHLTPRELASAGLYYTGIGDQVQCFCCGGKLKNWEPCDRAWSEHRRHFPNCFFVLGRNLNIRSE
Sequence of XIAP BIR3 protein (P98170 241-356 limits assumed): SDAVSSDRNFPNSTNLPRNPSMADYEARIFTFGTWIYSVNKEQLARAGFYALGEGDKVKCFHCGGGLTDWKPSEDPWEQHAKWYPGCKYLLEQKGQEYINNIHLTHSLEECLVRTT

Regarding `CC[C@H](C)[C@H](NC(=O)[C@@H]1CCCN1C(=O)[C@@H](NC(=O)[C@H](C)N)C(C)C)C(=O)O` [Compound 1, L-alanyl-L-valyl-L-prolyl-L-isoleucine], the “In vitro cytotoxicity at 10 μM dose, SW 620 (percent growth inhibition)” value in the data set on SW 620 cells (10 μM, 48 hours, SRB assay) was 0.97 ± 2.3%. Further, the “In vitro cytotoxicity at 10 μM dose, HT29 (percent growth inhibition)” value in the data set with HT29 cells (10 μM, 48 hours, SRB assay) is on record as −0.01 ± 3.6%.

On to `CC[C@H](C)[C@H](NC(=O)[C@@H]1CC[C@H](c2ccc(C)o2)N1C(=O)[C@@H](NC(=O)[C@H](C)N)C(C)C)C(=O)OCc1ccccc1` [Compound 2, benzyl ((2S,5R)-1-(L-alanyl-L-valyl)-5-(5-methylfuran-2-yl)pyrrolidine-2-carbonyl)-L-isoleucinate], for which the Ki on XIAP BIR3 protein (setting [2]) and on XIAP BIR2 protein (setting [4]) was more than 10 µM in each case. Moreover, the inhibition at 10 µM in the data set on SW 620 cells (setting [3]) is 7.88 ± 8%; with HT29 cells (setting [5]), -1.83 ± 5.5%; in the data set with HCT 116 cells (setting [7]), -7.06 ± 6.9%. The inhibition at 48 h, 10 μM in data set [1] (setting [6]) turned out to be 24.2 ± 22.7%.

For `Cc1ccc([C@H]2CC[C@@H](C(=O)NC(c3ccccc3)c3ccccc3)N2C(=O)[C@@H](NC(=O)[C@H](C)N)C(C)C)o1` [Compound 3, (2S,5R)-1-(L-alanyl-L-valyl)-N-benzhydryl-5-(5-methylfuran-2-yl)pyrrolidine-2-carboxamide], the inhibitory constant (Ki) is 0.23 µM on XIAP BIR3 protein (setting [2]) and 1.08 µM at XIAP BIR2 protein (setting [4]). Moreover, the inhibition at 10 µM was 1.44 ± 2.1% with SW 620 cells (setting [3]), -0.46 ± 2.2% with HT29 cells (setting [5]) and -2.6 ± 6.1% in the data set on HCT 116 cells (setting [7]). Also, the inhibition at 48 h, 10 μM in data set [1] (setting [6]) came to 3.89 ± 3.4%.

In the case of `CC[C@H](C)[C@H](NC(=O)[C@@H]1CC[C@H](c2ccc(C)o2)N1C(=O)[C@@H](NC(=O)[C@H](C)NC)C(C)C)C(=O)OCc1ccccc1` [Compound 4, (2S,3S)-benzyl 3-methyl-2-((2S,5R)-1-((S)-3-methyl-2-((S)-2-(methylamino)propanamido)butanoyl)-5-(5-methylfuran-2-yl)pyrrolidine-2-carboxamido)pentanoate], the results for the inhibition constant (Ki) on XIAP BIR3 protein (setting [2]) and at XIAP BIR2 protein (setting [4]) were 4.38 µM and 7.39 µM, respectively. The figures for the inhibition at 10 µM in the data set on SW 620 cells (setting [3]), in the data set with HT29 cells (setting [5]) and with HCT 116 cells (setting [7]) were -4.1%, 12 ± 0.6% and -8.07 ± 6.6%, respectively. In addition, the inhibition at 48 h, 10 μM in data set [1] (setting [6]) was 4.54 ± 5.6%.

With `CN[C@@H](C)C(=O)N[C@H](C(=O)N1[C@@H](c2ccc(C)o2)CC[C@H]1C(=O)NC(c1ccccc1)c1ccccc1)C(C)C` [Compound 5, (2S,5R)-N-benzhydryl-1-(methyl-L-alanyl-L-valyl)-5-(5-methylfuran-2-yl)pyrrolidine-2-carboxamide], the Ki on XIAP BIR3 protein (setting [2]) was 0.5 µM; on XIAP BIR2 protein (setting [4]) it was 3.25 µM. In addition, the inhibition at 10 µM was 8.11 ± 11.3% in the data set with SW 620 cells (setting [3]), 40.9 ± 5.3% with HT29 cells (setting [5]) and 5.96 ± 1.2% in the data set with HCT 116 cells (setting [7]). Also, in data set [1] (setting [6]), the inhibition at 48 h, 10 μM came out at 11.4 ± 1.1%.

For the compound `CC[C@H](C)[C@H](NC(=O)[C@@H]1CC[C@H](c2ccc(C)o2)N1C(=O)[C@@H](NC(=O)[C@H](C)NC)C1CCCCC1)C(=O)OCc1ccccc1` [Compound 7, (2S,3S)-benzyl 2-((2S,5R)-1-((S)-2-cyclohexyl-2-((S)-2-(methylamino)propanamido)acetyl)-5-(5-methylfuran-2-yl)pyrrolidine-2-carboxamido)-3-methylpentanoate] (H-[NMeA][Chg][Pro(5R-(5-methylfur-2-yl))]I-OBn), the Ki at XIAP BIR3 protein (setting [2]) was 1.42 µM; on XIAP BIR2 protein (setting [4]), more than 10 µM. Moreover, the inhibition at 10 µM in the data set with SW 620 cells (SW-620, 48 h) stood at 52.9 ± 22.4%; in the data set with HT29 cells (HT-29, 48 h), 71.6 ± 10.2%; in the data set on HCT 116 cells (HCT-116, 48 h), 76.5 ± 2.3%. Further, the inhibition at 48 h, 10 μM in data set [1] stood at 63.2 ± 5%.

`CN[C@@H](C)C(=O)N[C@H](C(=O)N1[C@@H](c2ccc(C)o2)CC[C@H]1C(=O)NC(c1ccccc1)c1ccccc1)C1CCCCC1` [Compound 8, (2S ,5R)-N-benzhydryl-1-((S)-2-cyclohexyl-2-((S)-2-(methylamino)propanamido)acetyl)-5-(5-methylfuran-2-yl)pyrrolidine-2-carboxamide]: the values for the Ki on XIAP BIR3 protein (setting [2]) and at XIAP BIR2 protein (setting [4]) were 0.73 µM and 1.8 µM, respectively. Besides, the results for the inhibition at 10 µM in the data set with SW 620 cells (setting [3]), with HT29 cells (setting [5]) and in the data set on HCT 116 cells (setting [7]) were 38.7 ± 12.6%, 66 ± 2.4% and 48.5 ± 6.7%, respectively. Moreover, the inhibition at 48 h, 10 μM in data set [1] (setting [6]) came to 39.4 ± 6.9%.

On to `CC[C@H](C)[C@H](NC(=O)[C@@H]1CC[C@H](c2ccc(C)o2)N1C(=O)[C@@H](NC(=O)[C@H](C)NC)C1CCCCC1)C(=O)NC(c1ccccc1)c1ccccc1` [Compound 9, (2S,5R)-N-((2S ,3S)-1-(benzhydrylamino)-3-methyl-l-oxopentan-2-yl)-1-((S)-2-cyclohexyl-2-((S)-2-(methylamino)propanamido)acetyl)-5-(5-methylfuran-2-yl)pyrrolidine-2-carboxamide] (H-[NMeA][Chg][Pro(5R-(5-methylfur-2-yl))]I-NHCHPh2), for which the inhibitory constant (Ki) is 0.79 µM on XIAP BIR3 protein and more than 10 µM at XIAP BIR2 protein. For the same compound, the inhibition at 10 µM with SW 620 cells (SW-620, 48 h) came out at 81.8 ± 3.3%; in the data set with HT29 cells (HT-29, 48 h), 72.7 ± 6.9%; with HCT 116 cells (HCT-116, 48 h) it was 66.2 ± 15%. For the same compound, in data set [1] (10 μM, 48 hours, SRB assay, read-out: In vitro cytotoxicity at 10 μM dose, VERO (percent growth inhibition)), the inhibition at 48 h, 10 μM came out at 59.4 ± 11.7%.

As for `N.N.[Cl][Pt][Cl]` [cisplatin, reference compound], the “In vivo anti tumor efficacy” value in the data set with SW-620 xenograft was “failed to deliver its effect”.

One may read the Ki as the dissociation constant of the complex between target and ligand, obtained from inhibition or displacement. What is called inhibition is the change of the read-out against control, counted positive when it falls.
